In the supplement of paper PMC10307832:

Assays:
Assay in all cases: relative viability (nuclei count vs DMSO), 5 days (fraction); higher = more cells survive
[1] = compound: CC1=C(C(=NN1)C)CC2=C(C3=C(S2)N(C(=O)N(C3=O)C)CC(C)C)C(=O)N4C[C@@H](CO4)O + Nc1ncn([C@H]2C[C@H](O)[C@@H](CO)O2)c(=O)n1 [Decitabine] (partner 2 µM)
Summary of the method: (§1)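 After 5 days of treatment, lung cancer cells in 1536-well plates were fixed and stained in a single step (final 0.05% Triton X-100, 1% formaldehyde, 1 ug/ml Hoechst) and their nuclei counted on 4× images. Treatment had been applied by pin tool the day after seeding as one drug alone or as a fixed anchor-drug dose with five library-drug doses (not always all listed) in √10 steps. Relative viability is the nuclei count of treated wells divided by that of vehicle wells, and values are medians of duplicate plates.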

[2] = compound: CC1=C(C(=NN1)C)CC2=C(C3=C(S2)N(C(=O)N(C3=O)C)CC(C)C)C(=O)N4C[C@@H](CO4)O + C[C@@H](Oc1cc(-c2cnn(C3CCNCC3)c2)cnc1N)c1c(Cl)ccc(F)c1Cl [Crizotinib] (partner 1 µM)
Summary of the method: as §1

IDH-C35 + Vorinostat = compound: Cc1ccccc1C(C(=O)NC1CCCCC1)N(C(=O)Cn1ccnc1C)c1cccc(F)c1 [IDH-C35] + O=C(CCCCCCC(=O)Nc1ccccc1)NO [Vorinostat] (partner 1 µM)
Summary of the method: as §1

IDH-C35 + Tozasertib = compound: Cc1ccccc1C(C(=O)NC1CCCCC1)N(C(=O)Cn1ccnc1C)c1cccc(F)c1 [IDH-C35] + Cc1cc(Nc2cc(N3CCN(C)CC3)nc(Sc3ccc(NC(=O)C4CC4)cc3)n2)n[nH]1 [Tozasertib] (partner 0.1 µM)
Summary of the method: as §1

Cell Line | relative viability ([1]; first compound 0.0025 µM) | relative viability ([1]; first compound 0.007906 µM) | relative viability ([1]; first compound 0.025 µM) | relative viability ([1]; first compound 0.07906 µM) | relative viability ([1]; first compound 0.25 µM) | relative viability ([2]; first compound 0.0025 µM) | relative viability ([2]; first compound 0.007906 µM) | relative viability ([2]; first compound 0.025 µM) | relative viability ([2]; first compound 0.07906 µM) | relative viability ([2]; first compound 0.25 µM) | relative viability (IDH-C35 + Vorinostat; first compound 0.08 µM) | relative viability (IDH-C35 + Vorinostat; first compound 0.253 µM) | relative viability (IDH-C35 + Vorinostat; first compound 0.8 µM) | relative viability (IDH-C35 + Vorinostat; first compound 2.53 µM) | relative viability (IDH-C35 + Vorinostat; first compound 8 µM) | relative viability (IDH-C35 + Tozasertib; first compound 0.08 µM) | relative viability (IDH-C35 + Tozasertib; first compound 0.253 µM) | relative viability (IDH-C35 + Tozasertib; first compound 0.8 µM) | relative viability (IDH-C35 + Tozasertib; first compound 2.53 µM) | relative viability (IDH-C35 + Tozasertib; first compound 8 µM)
COR-L23 | 0.439 | 0.41 | 0.406 | 0.304 | 0.381 | 0.679 | 0.56 | 0.445 | 0.403 | 0.386 | 0.503 | 0.421 | 0.404 | 0.408 | 0.409 | 0.253 | 0.174 | 0.263 | 0.195 | 0.158
ABC-1 | 0.988 | 0.899 |  | 0.889 | 0.779 | 1.24 | 0.905 | 1.01 | 0.956 | 0.992 | 1.12 | 1.07 | 0.941 | 1.23 | 1.3 | 0.188 | 0.171 | 0.188 | 0.146 | 0.176
SW 900 | 0.449 | 0.405 | 0.547 | 0.469 | 0.412 |  |  |  |  |  | 0.496 | 0.44 |  | 0.505 | 0.529 | 0.51 | 0.645 | 0.585 | 0.615 | 0.508
NCI-H838 | 0.447 | 0.489 | 0.43 | 0.455 | 0.444 | 0.869 | 1.02 | 0.747 | 0.809 | 0.885 | 0.706 | 0.675 | 0.718 | 0.763 | 0.72 | 0.249 | 0.276 | 0.292 | 0.281 | 0.234
NCI-H1648 | 0.582 | 0.529 | 0.5 | 0.302 | 0.461 |  |  |  |  |  |  | 0.415 | 0.523 | 0.443 | 0.525 | 0.567 | 0.499 | 0.511 | 0.525 | 0.541
A549 | 0.237 | 0.284 | 0.252 | 0.232 | 0.343 | 0.763 | 0.805 | 0.663 | 0.858 | 1.07 |  |  |  |  |  |  |  |  |  | 
A-427 | 0.592 | 0.576 | 0.623 | 0.605 | 0.604 | 0.904 | 0.953 | 0.879 | 0.917 | 1.13 | 0.868 | 0.796 | 0.848 | 0.901 | 0.856 | 0.216 | 0.221 | 0.215 | 0.206 | 0.182
NCI-H1792 | 0.483 | 0.489 | 0.408 | 0.451 | 0.517 | 1.04 | 0.976 | 0.901 | 0.855 | 0.786 |  |  |  |  |  |  |  |  |  | 
LCLC-97TM1 | 0.265 | 0.237 | 0.219 | 0.242 | 0.224 | 0.448 | 0.436 | 0.371 | 0.361 | 0.692 | 0.706 | 0.729 | 0.67 |  | 0.436 | 0.397 | 0.189 | 0.184 | 0.196 | 0.231
NCI-H1703 |  |  |  |  |  | 0.84 | 0.828 | 0.898 | 0.688 | 0.777 |  |  |  |  |  |  |  |  |  | 
LCLC-103H | 0.753 | 0.746 | 0.766 | 0.644 | 0.701 | 0.936 | 1.03 | 1.02 | 0.991 | 1.17 | 0.782 | 0.755 | 0.87 | 0.591 | 0.625 | 0.554 | 0.435 | 0.47 | 0.499 | 0.38
PC-3 [JPC-3] | 0.843 | 0.787 | 0.9 | 0.843 | 0.996 | 1.02 | 0.898 | 0.93 | 0.861 | 1.08 | 0.748 | 0.815 | 0.768 | 0.988 | 0.814 | 0.803 | 0.898 | 0.861 | 0.852 | 0.927
BEN | 0.626 | 0.708 | 0.613 | 0.622 | 0.614 | 0.912 | 0.719 | 0.75 | 0.604 | 0.847 | 0.576 | 0.608 | 0.618 | 0.568 | 0.593 | 0.5 | 0.429 | 0.515 | 0.474 | 0.552
Calu-6 |  |  |  |  |  | 0.741 | 0.691 | 0.808 | 0.746 | 1 |  |  |  |  |  |  |  |  |  | 
NCI-H2342 | 0.74 | 0.784 | 0.81 | 0.693 | 0.799 |  |  |  |  |  | 0.817 | 0.712 | 0.793 | 0.715 | 0.806 | 0.482 | 0.54 | 0.483 | 0.494 | 0.442
EBC-1 |  |  |  |  |  | 0.219 | 0.182 | 0.191 | 0.214 | 0.184 |  |  |  |  |  |  |  |  |  | 
NCI-H1299 |  |  |  |  |  | 0.961 | 0.993 | 0.923 | 0.941 | 0.948 |  |  |  |  |  |  |  |  |  | 
NCI-H2228 |  |  |  |  |  | 0.421 | 0.523 | 0.473 | 0.505 | 0.469 | 0.64 | 0.632 | 0.563 | 0.754 | 0.648 | 0.319 | 0.221 | 0.302 | 0.246 | 0.203
NCI-H522 | 0.658 | 0.655 | 0.472 | 0.498 | 0.599 |  |  |  |  |  | 0.953 | 1.12 | 0.896 | 0.872 | 0.883 | 0.545 | 0.543 | 0.589 | 0.581 | 0.611
IA-LM |  |  |  |  |  | 0.924 | 0.743 | 0.838 | 0.885 | 1.03 | 1 | 0.878 | 0.881 |  | 1.05 |  |  |  |  | 
NCI-H1793 | 0.295 | 0.517 | 0.471 | 0.449 | 0.524 |  |  |  |  |  | 0.784 | 0.82 | 0.773 | 0.913 | 0.881 | 0.353 | 0.415 | 0.329 |  | 0.296
CAL-12T |  |  |  |  |  | 0.76 | 0.724 | 0.558 | 0.667 | 0.817 | 0.69 | 0.947 | 0.815 | 0.882 | 0.791 | 0.307 | 0.306 | 0.303 | 0.379 | 0.301
